According to ChEMBL document CHEMBL5150060 (J Med Chem, 2022):
Calls of active or inactive are those of the source. No cut-off for these calls is given here.

Key:
[1] = target: T1, Histone deacetylase 8 (Homo sapiens) (UniProt Q9BY41); test: Inhibition of HDAC8 in human Jurkat T cells assessed as upregulation of IL5 expression at 10 uM after 6 to 12 hrs by RT-qPCR analysis; format: cell-based; conditions: time 6-12 hrs
T1 sequence (whole entry): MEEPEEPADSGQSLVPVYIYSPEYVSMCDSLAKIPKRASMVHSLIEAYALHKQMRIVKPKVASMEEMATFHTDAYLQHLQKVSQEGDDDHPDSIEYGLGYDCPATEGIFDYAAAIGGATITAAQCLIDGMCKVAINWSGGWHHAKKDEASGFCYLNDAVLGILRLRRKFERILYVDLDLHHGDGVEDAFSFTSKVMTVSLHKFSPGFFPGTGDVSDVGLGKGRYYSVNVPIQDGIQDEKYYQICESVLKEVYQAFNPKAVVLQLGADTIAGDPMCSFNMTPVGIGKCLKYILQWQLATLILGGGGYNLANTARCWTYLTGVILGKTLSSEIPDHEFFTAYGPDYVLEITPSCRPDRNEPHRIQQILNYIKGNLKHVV

Histone deacetylase 8 = target: T2, Histone deacetylase 8 (Homo sapiens, UniProt Q9BY41); test: Competitive inhibition of human HDAC8 using Abz-SRGGK(STFA)FFRR-NH2 (S) as substrate by Lineweaver-burk plot analysis
T2 sequence (Q9BY41 whole entry): T1 sequence (whole entry)

[2] = Stability of compound in DMEM/DMSO/acetonitrile at pH 7.4 measured after 24 hrs by HPLC analysis; format: physicochemical; conditions: read-out: Stability
[3] = Toxicity in C57BL/6 mouse assessed as change in kidney weight at 5 to 10 mg/kg, ip administered 5 days per week for 2 weeks by H and E staining based assay; format: organism-based; conditions: in vivo, 336 h, dose 5-10 mg/kg
HEK293 = test: Cytotoxicity against HEK293 cells assessed as reduction in cell viability at 50 uM after 24 hrs by alamar blue assay; format: toxicity, cell-based; conditions: human, hek293, 24 h
Histone deacetylase 11 = target: T3, Histone deacetylase 11 (Homo sapiens, UniProt Q96DB2); test: Inhibition of recombinant human HDAC11 preincubated for 10 mins followed by substrate addition by fluorescence based analysis
T3 sequence (Q96DB2 whole entry): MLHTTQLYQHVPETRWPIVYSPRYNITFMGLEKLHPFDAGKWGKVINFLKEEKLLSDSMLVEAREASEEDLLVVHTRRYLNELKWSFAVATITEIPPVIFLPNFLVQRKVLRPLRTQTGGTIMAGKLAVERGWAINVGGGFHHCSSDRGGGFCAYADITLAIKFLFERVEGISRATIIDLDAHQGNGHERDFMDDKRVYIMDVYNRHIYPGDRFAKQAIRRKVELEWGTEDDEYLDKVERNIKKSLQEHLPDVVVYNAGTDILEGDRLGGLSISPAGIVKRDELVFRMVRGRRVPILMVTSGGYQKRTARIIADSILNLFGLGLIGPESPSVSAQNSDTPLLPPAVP

[4] = target: T1, Histone deacetylase 8 (Homo sapiens); test: Inhibition of HDAC8 in human Jurkat T cells assessed as upregulation of TBX21 expression after 6 hrs by RT-qPCR analysis; format: cell-based; conditions: dose 0.1-10 µM, DDE = dose-dependent effect
[5] = target: T1, Histone deacetylase 8 (Homo sapiens); test: Inhibition of HDAC8 in human Jurkat T cells assessed as upregulation of IL10 expression after 6 hrs by RT-qPCR analysis; format: cell-based; conditions: dose 0.1-10 µM, DDE = dose-dependent effect
Histone deacetylase 2 = Histone deacetylase 2 (Homo sapiens, UniProt Q92769); test: Inhibition of recombinant human HDAC2 using p53 (Ac-RHKK(Acetyl)-AMC) as substrate preincubated for 5 mins followed by substrate addition and measured after 30 mins by fluorescence based analysis
Sequence of Histone deacetylase 2 (Q92769 whole entry): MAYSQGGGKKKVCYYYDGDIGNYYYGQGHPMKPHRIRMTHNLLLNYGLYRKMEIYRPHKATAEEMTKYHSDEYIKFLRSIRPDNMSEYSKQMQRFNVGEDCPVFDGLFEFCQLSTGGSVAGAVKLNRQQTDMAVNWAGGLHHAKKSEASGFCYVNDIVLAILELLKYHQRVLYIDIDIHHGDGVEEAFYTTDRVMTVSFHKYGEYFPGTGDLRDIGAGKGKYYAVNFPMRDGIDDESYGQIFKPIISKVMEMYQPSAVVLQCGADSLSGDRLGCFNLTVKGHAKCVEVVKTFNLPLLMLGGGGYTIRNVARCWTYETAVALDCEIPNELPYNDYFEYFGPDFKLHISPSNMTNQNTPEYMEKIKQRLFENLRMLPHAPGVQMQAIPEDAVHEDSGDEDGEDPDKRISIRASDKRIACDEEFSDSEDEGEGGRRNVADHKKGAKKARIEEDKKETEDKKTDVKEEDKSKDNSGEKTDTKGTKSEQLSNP

CCCCCCNNC(=O)c1ccc(-c2ccc(CNC(C)=O)cc2)cc1
inhibition [1]: Active
Ki (Histone deacetylase 8): 0.0306 µM
remaining at 24 h [2]: 105%
Activity [3]: Non-Toxic
Cell viability (HEK293): 121.3%
IC50 (Histone deacetylase 11): 0.18 µM
inhibition [4]: Dde
inhibition [5]: Dde
IC50 (Histone deacetylase 2): 12 µM
